Source: patent publication US20250144054A1, “SMALL MOLECULE STAT3 INHIBITOR FOR TREATING TRIPLE NEGATIVE BREAST CANCER” (UNIVERSITY OF MARYLAND, BALTIMORE, priority 2022, published 2025)

Key:
HPAC cells [1] = assay: MTT cell viability assay, HPAC cells; format: cell-based, human; settings: 3 days
Description: The human pancreatic cancer cell lines HPAC and PANC-1 were seeded and allowed to attach for 24 hours. Then cells were treated with different concentrations of LLL12B for 3 days and the cell viability was determined by MTT cell viability assay.

STAT1 = assay: IFN-γ induced STAT1 phosphorylation, Western blot, MDA-MB-231 cells; format: cell-based, human; settings: pretreated 2 hours, 50 ng/ml IFN-γ 30 minutes
Description: (A) The chemical structures of LLL12B and LLL12. The carbamate ester bond of LLL12B is hydrolytically cleaved by the tumor-associated plasmin to release LLL12. (B) SUM159 cells were seeded in a 6-well plate and treated with LLL12B for 8 hours. Cells were stained with Phospho-Stat3 (Tyr705) and DAPI (indicated by arrows). Green: P-STAT3 (Y705); Blue: DAPI. T47D (C) and MDA-MB-231 (D) breast cancer cells were pretreated with DMSO or LLL12B in a serum-free medium for 2 hours and stimulated with 50 ng/ml of IL-6, IFN-γ, or EGF for additional 30 minutes. Cells were collected and analyzed by Western blot. GAPDH served as a protein loading control.
Western blot. Cells were collected and total protein was extracted using cell lysis buffer (Cell Signaling Technology, Danvers, MA, USA). Protein concentration was determined using the Pierce BCA Protein Assay Kit (Thermo Fisher Scientific, Waltham, MA, USA) according to the manufacturer's instructions. Equal amounts of protein were separated by 10% SDS-PAGE gels and transferred to PVDF membranes. Membranes were blocked in 5% non-fat milk at room temperature and probed with specific antibodies P-STAT3 (Y705), STAT3, Cyclin D1, Cleaved Caspase-3, P-STAT1 (Y701), STAT1, P-ERK, ERK or GAPDH (1:1000, Cell Signaling Technology, Danvers, MA, USA) at 4° C. overnight. […]

SUM149 xenograft = SUM149 xenograft model in vivo
Excerpt: Next, the efficacy of LLL12B and Talazoparib was examined in the SUM149 xenograft model in vivo. […] V: Vehicle; L: LLL12B; T: Talazoparib. Western blot analysis further confirmed the inhibition of p-STAT3 in LLL12B and combination treated tumors (FIG. 16D).

SUM159 cells = assay: Wound healing assay, SUM159 cells; format: cell-based, human; settings: SUM159, vs DMSO
Description: (§1) Wound healing assay. MDA-MB-231, SUM159, and 4T1 cells were seeded in a 6-well plate and cultured until fully confluent. A straight scratch crossing the monolayer was created using a 200 μl pipette tip and images of scratched areas were taken. Next, cells were treated with DMSO or LLL12B. Then, images were taken until the scratch of DMSO-treated cells was closed and the relative migration (%) was calculated.
(§2) Given the relevance between cancer cell migration and metastasis, cell migration was evaluated using wound healing assay following LLL12B and Talazoparib treatment.
(§3) In FIG. 12, L: LLL12B; T: Talazoparib; L0.5:0.5 μM LLL12B; L0.25:0.25 μM LLL12B; T0.5:0.5 μM Talazoparib; T10: 10 μM Talazoparib. In FIG. 13, L: LLL12B; T: Talazoparib; L0.5:0.5μ M LLL12B; T10: 10μ M Talazoparib; T20: 20μ M Talazoparib. In FIG. 14, L: LLL12B; T: Talazoparib; L0.5:0.5μ M LLL12B; T10: 10μ M Talazoparib; T20: 20μ M Talazoparib.
(§4) L: LLL12B; A: Abemaciclib; L0.5:0.5 μM LLL12B; A2.5:2.5 μM Abemaciclib; A1: 1 μM Abemaciclib

HPAC cells [2] = assay: Wound healing assay, HPAC cells; format: cell-based, human; settings: approximate 24 hours
Description: The inhibitory effects on cell migration by LLL12B in pancreatic cancer cells was also examined. The human HPAC pancreatic cancer cells were seeded and allowed to attach for 24 hours. Then cells were treated with different concentrations of LLL12B for approximate 24 hours and the cell migration was determined by wound healing assay.

[3] = refs [25,28]; cited from earlier work
ovarian cancer cells = settings: ref [45]; cited from earlier work
MDA-MB-231 cells = assay: Wound healing assay, MDA-MB-231 cells; format: cell-based, human; settings: MDA-MB-231, vs DMSO
Description: as §1, §2, §3, §4

STAT3 = assay: Western blot of P-STAT3 (Y705), STAT3, Cyclin D1, Cleaved Caspase-3 in MDA-MB-231 cells; format: cell-based, human; settings: MDA-MB-231, overnight
Description: (A) MDA-MB-231, SUM159, and 4T1 cell lines were treated with DMSO or LLL12B overnight and the expression levels of P-STAT3 (Y705), STAT3, Cyclin D1, and Cleaved Caspase-3 were analyzed by Western blot. GAPDH served as a protein loading control. (B) MDA-MB-231 cells were treated with DMSO or C188-9 overnight and the expression levels of P-STAT3 (Y705), STAT3, Cyclin D1, and Cleaved Caspase-3 were analyzed by Western blot. (C) MDA-MB-231, SUM159, and 4T1 cells were seeded in a 96-well plate and treated with DMSO or LLL12B for 5 hours and a Caspase-3/7 Fluorescence Assay Kit was used to detect the activation of caspase-3/7. (D) MDA-MB-231, SUM159, and 4T1 cell lines were treated with DMSO or LLL12B for 8-12 hours, and flow cytometry was performed to analyze annexin V and PI staining. The quantification of apoptotic cells was shown in the right panel. ** P<0.01, *** P<0.001 and ****P<0.0001.
SiRNA and transfection. STAT3 siRNA and Negative Control siRNA (Cell Signaling Technology, Danvers, MA, USA) were used to knock down STAT3 in MDA-MB-231, SUM159, and 4T1 cell lines. Cells were transfected with STAT3 siRNA or Negative Control siRNA using Lipofectamine RNAiMAX (Invitrogen, Carlsbad, CA, USA) according to the manufacturer's instructions. After 72 hours, cell viability was examined by MTT cell viability assay, and the transfection efficiency was examined by western blot.
Western blot. Cells were collected and total protein was extracted using cell lysis buffer (Cell Signaling Technology, Danvers, MA, USA). Protein concentration was determined using the Pierce BCA Protein Assay Kit (Thermo Fisher Scientific, Waltham, MA, USA) according to the manufacturer's instructions. Equal amounts of protein were separated by 10% SDS-PAGE gels and transferred to PVDF membranes. Membranes were blocked in 5% non-fat milk at room temperature and probed with specific antibodies P-STAT3 (Y705), STAT3, Cyclin D1, Cleaved Caspase-3, P-STAT1 (Y701), STAT1, P-ERK, ERK or GAPDH (1:1000, Cell Signaling Technology, Danvers, MA, USA) at 4° C. overnight. The blots were visualized using SuperSignal™ West Femto Maximum Sensitivity Substrate (Thermo Fisher Scientific, Waltham, MA, USA) and an Amersham Imager 680 (GE Healthcare Life Sciences, Marlborough, MA, USA) after incubating with horseradish peroxidase (HRP)-conjugated anti-rabbit secondary antibody (1:5000, Cell Signaling Technology, Danvers, MA, USA).

medulloblastoma cells = settings: refs [25,31]; cited from earlier work

CN(C)C(=O)Oc1cccc2c1C(=O)c1cccc(S(N)(=O)=O)c1C2=O [LLL12B]
cell viability (HPAC cells [1]): significantly inhibits
induction of P-STAT1 (Y701) stimulated by IFN-γ (STAT1): did not inhibit
p-STAT3 in tumors, Western blot (SUM149 xenograft): inhibition
wound closure (cell migration) (SUM159 cells): effectively inhibited
cell migration (HPAC cells [2]): significantly inhibits
in vivo pharmacokinetic properties compared to LLL12 [3]: superior
sensitization to paclitaxel and cisplatin (ovarian cancer cells): sensitized
wound closure (cell migration) (MDA-MB-231 cells): effectively inhibited
concentration that inhibited P-STAT3 and Cyclin D1 in Western blot (STAT3): 1 µM
Cyclin D1 expression (STAT3; vs DMSO): decreased
expression of Cleaved Caspase-3 (STAT3; vs DMSO): enhanced
phosphorylation of STAT3 (STAT3; vs DMSO): decreased
apoptosis (medulloblastoma cells): induced apoptosis
tumor growth (medulloblastoma cells): suppressed tumor growth
